Converted amounts (≈) assume the structure as drawn.
Tests used:
[1] = Pharmacokinetic evaluation of compounds in mice (tail vein injection); assay type: in vivo, Male CD-1 (ICR) mice; conditions: CD-1 (ICR), mouse, male CD-1 mice, intravenous injection, dose 10 mg/kg, plasma; for half-life: read-out: T½ (converted); for Vd: read-out: Vss
Method: Male CD-1 (ICR) mice were purchased and then acclimatized in this laboratory for at least 3 days. […] Blood samples were collected from the saphenous vein at 0.0833 h, 0.25 h, 0.5 h, 1 h, 2 h, 4 h, 8 h and 24 h following the tail vein injection administration. The volume of blood collection at each time point of the blood collection was about 30 μL. The blood samples were placed in centrifuge tubes containing anticoagulant EDTA-K2 and centrifuged at 3,200 g at 4° C. for 10 min, and then the upper plasma samples were collected and preserved in a freezer at −70±10° C. for later tests.
1) To 1.5 mL centrifuge tubes were added a 6 μL aliquot of an unknown sample, a standard curve, a quality control, a dilution quality control, single blank and double blank samples.
2) Each sample (except for the double blank sample) was treated with 120 μL of IS1-containing precipitant (the double blank sample was treated with 120 μL of pure MeOH for precipitation), and the mixtures were well mixed (for at least 15 s) using a vortexer and centrifuged at 12,000 g at 4° C. for 15 min.
3) 60 μL of the supernatants were transferred to a 96-well plate and centrifuged at 4° C. at 3220 g for 5 min, and 6 p L of the supernatants were injected for LC-MS/MS quantitative analysis.
1) The 1 h-plasma samples from the 3 mice were diluted 10-fold: 2 p L of the samples were added to 18 p L of blank matrix.
2) The 0.0833 h to 0.5 h-plasma samples from the 3 mice were diluted 100-fold: 18 μL of blank matrix was added to 2 p L of the samples to obtain 10-fold diluted samples. 2 μL of the 10-fold diluted samples were added to 18 p L of blank matrix to obtain 100-fold diluted analysis samples.
LC-MS/MS analysis conditions: chromatography column: ACQUITY UPLC HSS T3 (2.1×50 mm, 1.8 μm); column temperature: 50° C.; mobile phase A: a 0.1% aqueous solution of formic acid; mobile phase B: a 0.1% solution of formic acid in acetonitrile; flowrate: 0.65 mL/min. Internal standard: verapamil (100 ng/mL)
The concentration of the compounds in plasma was measured by LC-MS/MS (LC-MS/MS-AK_Q-Trap 6500). The pharmacokinetic software WinNonlin [version: Phoenix™ WinNonlin®6.3, manufacturer: Pharsight Corporation] was used to calculate pharmacokinetic parameters (V-Noncompartmental model 201).

[2] = test system: Pseudomonas aeruginosa HDBPA 5679; assay: Minimum inhibitory concentration (broth microdilution, CLSI); assay type: cell-based; conditions: HDBPA5679
Method: (§1) 103 bacterial strains used for the minimum inhibitory concentration test were frozen in a −80° C. ULT freezer and thawed 2 days before use. A small amount of frozen microorganism bacteria were scraped using a sterile inoculating loop, streaked onto a suitable solid culture dish for inoculation, and then cultured for about 20 h at 35 t 2° C. in a normal incubator. • Proteus mirabilis HDBPM 40: MA, normal atmospheric environment • The remaining 102 strains of bacteria: TSA, normal atmospheric environment
(§2) 5-10 colonies with similar morphology were picked from the culture dish using a sterile inoculating loop and then re-streaked onto a corresponding solid culture dish. Then the dish was incubated in a normal incubator at 35 t 2° C. for about 20 h.
(§3) 5-10 single microbial colonies were picked from the solid culture dish, resuspended in 500 μL of sterile normal saline (0.9% NaCl), and adjusted to an OD600 of about 0.15 with a spectrophotometer.
(§4) The bacteria were then diluted 300-fold with 1.02×CAMHB to an inoculation concentration of 2×10^5 CFU/mL.
(§5) • There were a total of 3 assay plate patterns, one of which was used for each assay. • 8 rows of the assay plate (rows A-H) were for 8 test compounds, respectively. The highest test concentration of the compounds was 16, 32 or 64 μg/mL, and each compound was diluted 2-fold. • Growth control (GC): a medium containing microbial inoculum (1.02×CAMHB) and dimethylsulfoxide (DMSO) but no compound.
(§6) The test and reference compounds were dissolved in DMSO or H2O to prepare 6.4 mg/mL stock solutions. The stock solutions were diluted to prepare standby solutions with certain concentrations, and the volumes of the standby solutions were determined according to the experimental design. Corresponding volumes of the standby solutions were transferred to the starting wells of a dilution plate (A1-H1), and half the starting-well volume of DMSO to the other wells. Each compound was diluted 2-fold sequentially from column 1 to column 11 (e.g., transferring 30 μL of DMSO to columns 2-12 first, then pipetting 30 μL of the compounds from column 1 to column 2 and mixing them well, then pipetting 30 μL of the compounds from column 2 to column 3 and mixing them well, then pipetting 30 μL of the compounds from column 3 to column 4 and mixing them well, and so on to column 11).
(§7) 1 or 2 μL of the compounds and DMSO were transferred from the compound plate to corresponding wells of the assay plates.
(§8) 98 μL of corresponding bacterial inocula were added to the assay plates.
(§9) After addition, the assay plates were covered with sterile covers. The mixtures in the assay plates were centrifuged in a centrifuge at 800 rpm for 30 s, mixed well on a microplate shaker at 400 rpm for 1 min, and incubated in a normal incubator at 35 t 2° C. for 20-24 h.
(§10) The assay plates were placed on a plate reading device, and the speculum was adjusted to observe and record the growth condition of bacteria in each well. In the mean time, each assay plate was photographed with QCount system.
(§11) The minimum inhibitory concentration of each compound was recorded by reference to guidelines from the Clinical and Laboratory Standards Institute.
(§12) The minimum inhibitory concentrations of the compounds against experimental strains were tested in this study by reference to the medium microdilution method as indicated by the Clinical and Laboratory Standards Institute. Compounds were diluted two-fold in 96-well plates from the highest detection concentration of 16, 32 or 64 μg/mL. The bacterial inocula in the assay plates were thawed from corresponding medium plates and diluted in 1.02×CAMHB, while growth controls (GC wells) were set up in the assay plates. The minimum inhibitory concentration of each compound against different bacteria was observed and recorded after the assay plates were incubated in a normal incubator at 35 t 2° C. for about 20 h. The minimum inhibitory concentration values for the different compounds are listed in the list below.

[3] = test system: Escherichia coli HDBEC 30048; assay: as above; assay type: cell-based; conditions: HDBEC30048
Method: as §1, §2, §3, §4, §5, §6, §7, §8, §9, §10, §11, §12

[4] = test system: Klebsiella pneumoniae HDBKP 9249; assay: as above; assay type: cell-based; conditions: HDBKP9249
Method: as §1, §2, §3, §4, §5, §6, §7, §8, §9, §10, §11, §12

[5] = test system: Klebsiella pneumoniae HDBKP 9153; assay: as above; assay type: cell-based; conditions: HDBKP9153
Method: as §1, §2, §3, §4, §5, §6, §7, §8, §9, §10, §11, §12

[6] = test system: Escherichia coli HDBEC 30016; assay: as above; assay type: cell-based; conditions: HDBEC30016
Method: as §1, §2, §3, §4, §5, §6, §7, §8, §9, §10, §11, §12

[7] = test system: Escherichia coli HDBEC 30008; assay: as above; assay type: cell-based; conditions: HDBEC30008
Method: as §1, §2, §3, §4, §5, §6, §7, §8, §9, §10, §11, §12

[8] = test system: Klebsiella pneumoniae HDBKP 30006; assay: as above; assay type: cell-based; conditions: HDBKP30006
Method: as §1, §2, §3, §4, §5, §6, §7, §8, §9, §10, §11, §12

[9] = test system: Proteus mirabilis HDBPM 40; assay: as above; assay type: cell-based; conditions: HDBPM40
Method: as §1, §2, §3, §4, §5, §6, §7, §8, §9, §10, §11, §12

[10] = test system: Enterobacter cloacae HDBECL 30030; assay: as above; assay type: cell-based; conditions: HDBECL30030
Method: as §1, §2, §3, §4, §5, §6, §7, §8, §9, §10, §11, §12

SMILES	AUC [1] [ng·h/mL]	clearance [1] [mL/min/kg]	half-life [1] [h]	Vd [1] [L/kg]	MIC [2] [µg/mL]	MIC [3] [µg/mL]	MIC [4] [µg/mL]	MIC [5] [µg/mL]	MIC [6] [µg/mL]	MIC [7] [µg/mL]	MIC [8] [µg/mL]	MIC [9] [µg/mL]	MIC [10] [µg/mL]
CC(C)(O/N=C(\C(=O)N[C@@H]1C(=O)N(S(=O)(=O)O)[C@@H]1CNC(=O)c1cc([C@@H]2CCN(CCNC(=O)c3ccc(O)c(O)c3Cl)C2)no1)c1csc(N)n1)C(=O)O [Compound I-35]	8530	19.5	1.43	0.57	< 4	< 4	4 to 8 (≈ 4.83 to 9.66 µM)	< 4	< 4	< 4	< 4	< 4	< 4
CC(C)(O/N=C(\C(=O)N[C@@H]1C(=O)N(S(=O)(=O)O)[C@@H]1CNC(=O)c1cnc([C@@H]2CC[N+](C)(C[C@H](N)CNC(=O)c3ccc(O)c(O)c3Cl)C2)s1)c1csc(N)n1)C(=O)O (some centres unmarked) [Compound I-38]					< 4	< 4	8 to 16	< 4	< 4	< 4	8 to 16	< 4	< 4
CC(C)(O/N=C(\C(=O)N[C@@H]1C(=O)N(S(=O)(=O)O)[C@@H]1CNC(=O)c1cc([C@@H]2CCN(CCNC(=O)c3cc(=O)c(O)c[nH]3)C2)no1)c1csc(N)n1)C(=O)O [Compound I-39]					< 4	< 4	8 to 16 (≈ 10.1 to 20.1 µM)	< 4	> 16	< 4	8 to 16 (≈ 10.1 to 20.1 µM)	< 4	< 4
CC(C)(O/N=C(\C(=O)N[C@@H]1C(=O)N(S(=O)(=O)O)[C@@H]1CNC(=O)c1cc([C@@H]2CCN(CCNC(=O)c3cc(=O)c(O)cn3O)C2)no1)c1csc(N)n1)C(=O)O [Compound I-40]					< 4	< 4	8 to 16 (≈ 9.87 to 19.7 µM)	< 4	< 4	< 4	8 to 16 (≈ 9.87 to 19.7 µM)	< 4	< 4
CC(C)(O/N=C(\C(=O)N[C@@H]1C(=O)N(S(=O)(=O)O)[C@@H]1CNC(=O)c1cnc([C@@H]2CCN(CCNC(=O)c3ccc(O)c(O)c3Cl)C2)s1)c1csc(N)n1)C(=O)O [Compound I-41]					< 4	< 4	4 to 8 (≈ 4.74 to 9.48 µM)	< 4	< 4	< 4	< 4	< 4	< 4
CC(C)(O/N=C(\C(=O)N[C@@H]1C(=O)N(S(=O)(=O)O)[C@@H]1CNC(=O)c1cnc(C2=CC(CCCNC(=O)c3ccc(O)c(O)c3Cl)N=C2)s1)c1csc(N)n1)C(=O)O (some centres unmarked) [Compound I-42]					< 4	< 4	8 to 16 (≈ 9.36 to 18.7 µM)	< 4	< 4	< 4	< 4	< 4	< 4
Cc1c(O)c(=O)cc(C(=O)N2CC[C@@H](c3cc(C(=O)NC[C@@H]4[C@H](NC(=O)/C(=N\OC(C)(C)C(=O)O)c5csc(N)n5)C(=O)N4S(=O)(=O)O)on3)C2)n1O [Compound I-43]	9660	17.3	0.59	0.24	< 4	< 4	8 to 16 (≈ 10.2 to 20.5 µM)	< 4	< 4	< 4	8 to 16 (≈ 10.2 to 20.5 µM)	< 4	< 4
Cc1c(C(=O)NCCN2CC[C@@H](c3cc(C(=O)NC[C@@H]4[C@H](NC(=O)/C(=N\OC(C)(C)C(=O)O)c5csc(N)n5)C(=O)N4S(=O)(=O)O)on3)C2)n(O)c(C)c(O)c1=O [Compound I-45]					< 4	< 4	8 to 16 (≈ 9.54 to 19.1 µM)	< 4	8 to 16 (≈ 9.54 to 19.1 µM)	< 4	8 to 16 (≈ 9.54 to 19.1 µM)	< 4	< 4
Cc1c(O)c(=O)cc(C(=O)NCCCn2cc(-c3ncc(C(=O)NC[C@@H]4[C@H](NC(=O)/C(=N\OC(C)(C)C(=O)O)c5csc(N)n5)C(=O)N4S(=O)(=O)O)s3)cn2)n1O [Compound I-46]					< 4	< 4	8 to 16 (≈ 9.39 to 18.8 µM)	< 4	< 4	< 4	8 to 16 (≈ 9.39 to 18.8 µM)	< 4	< 4

Reference: US20230110378A1, “MONOBACTAM COMPOUND AND USE THEREOF” (EVOPOINT BIOSCIENCES CO., LTD., priority 2019, published 2023)
